Test results reported in article PMC2245808, “Persistence of duplicated PAC1 receptors in the teleost, Sparus auratus” (BMC Evolutionary Biology, 2007).

Assays:
sbPAC1A = experiment: cAMP production in Cos7 cells expressing sbPAC1A (RIA); assay type: cell-based, sea bream (Sparus auratus); details: for LOGEC50 for cAMP production: 10^-6 to 10^-11M peptide, cAMP by radioimmunoassay (TRK432), mean ± SEM of three independent experiments in duplicate, log value with negative sign
Procedure: (§1) Specific primers for each sbPAC1 gene were designed to amplify the mature receptor sequence (Table 2) and were cloned into pcDNA3 vector (Invitrogen, UK) containing a signal peptide of CD33 and a T7-epitope tag (CD33-T7-pcDNA3, [66]). In order to facilitate cloning, restriction digestion sites for BglII and EcoRI enzymes were incorporated in the forward and reverse primers respectively. Template amplification was carried out using the thermocyle; 95°C for 2 minutes; 35 cycles of (95°C for 1 minute, 68°C for 1 minute and 70°C 2 minutes); 72°C for 10 minutes with a proof-reading Pfu DNA polymerase (Promega, Spain) in a 25 μl reaction volume containing 1 × PCR buffer (Promega, Spain), 1,5 mM MgCl2 (Promega, Spain), 0,2 mM dNTPs (Amersham), […] of each primer and 1,5 U Pfu DNA polymerase (3 U/μl)) and DNase Free water (Sigma-Aldrich, Spain). The amplified PCR products were cloned into pGEMT-easy vector (Promega, Spain), sequenced and subcloned into CD33-T7-pcDNA3 vector in frame with the T7-epitope tag. The recombinant constructs produced (CD33-T7-pcDNA3+sbPAC1A and CD33-T7-pcDNA3+sbPAC1B) were sequenced and used to transfect mammalian Cos7 and Hek293 cells lines. The CD86 (NM_175862) membrane protein of the immunoglobulin superfamily cloned in CD33-T7-pcDNA3 expression vector was used as positive control for cell transfection (de Vet et al., 2001).
(§2) Mammalian Cos7 and Hek293 cell lines were transfected using the Effectene transfection kit (Qiagen, Germany) and the success of transfection was assessed by western blot and immunofluorescence assays using antisera raised against the T7-epitope tag protein [66]. One day prior to transfection, approximately 60,000 to 70,000 Cos7 and Hek293 cells were seeded and transfections carried out using approximately 0.4 μg of recombinant construct (pcDNA3+sbPAC1A or B) and cells were grown for 2 days at 37°C. The viability of transfected cells was determined by dye exclusion using Trypan blue (0,4% solution, Sigma) and the success of transfection calculated by fluorescent confocal microscopy using DAPI (4',6-Diamidino-2-phenylindole) and FITC (Fluorescein) staining for Cos7 cells and the FACS (Fluorescence Activated Cell Sorting) method for Hek293 cells. The percentage of cell transfection was estimated to be approximately 30% in both cell lines.
Ligand binding studies were performed two days after transfections, in three independent experiments. Transfected cells were incubated in duplicate with different concentrations (10^-6 to 10^-11M) of the human VIP, PACAP38 and secretin (SCT) peptides and ovine PACAP27 peptide for 30 minutes (Sigma-Aldrich, Spain). Homologous sea bream peptides are unavailable but their predicted amino acid sequences are 82%, 100%and 92% identical to human VIP, PACAP27 and PACAP38 respectively and important amino acids at N-terminus potential involved in receptor binding are totally conserved (unpublished data). Prior to ligand-binding assays, Cos7 and Hek293 cells were washed 3 times with DMEM medium without fetal calf serum and incubated in a CO2 incubator with 1 mM of IBMX (3-Isobutyl-1-Methylxantine) for 30 minutes. Ligand-binding assays were performed by incubating the cells in fresh medium containing the peptides in the presence of 1 mM IBMX for 30 minutes at 37°C in the CO2 incubator. After incubation, cells were lysed and stored at -80°C until required. Mammalian Cos7 and Hek293 cells transfected with wild type pcDNA3 were used as negative controls which were incubated with the highest tested peptide concentration ([…]). Prior to assays the responsiveness of transfected Cos7 and Hek293 cells was tested by stimulating cAMP production using Forskolin ([…]; Sigma-Aldrich).
The quantification of cAMP produced was determined by radioimmunoassay using the TRK432 kit (GE Healthcare, UK) following the manufacturer's instructions. Cos7 and Hek293 cells were lysed by sonication, centrifuged and the supernatant heat denatured for 10 minutes at 100°C. […]

sbPAC1B = experiment: cAMP production in Cos7 cells expressing sbPAC1B (RIA); assay type: cell-based, sea bream (Sparus auratus); details: for LOGEC50 for maximal cAMP production: 10^-6 to 10^-11M peptide, cAMP by radioimmunoassay (TRK432), mean ± SEM of three independent experiments in duplicate, log value with negative sign
Procedure: as §1, §2
(§3) Ligand binding studies were performed two days after transfections, in three independent experiments. Transfected cells were incubated in duplicate with different concentrations (10^-6 to 10^-11M) of the human VIP, PACAP38 and secretin (SCT) peptides and ovine PACAP27 peptide for 30 minutes (Sigma-Aldrich, Spain). […]
The quantification of cAMP produced was determined by radioimmunoassay using the TRK432 kit (GE Healthcare, UK) following the manufacturer's instructions. […]

pituitary cells = details: compared to GHRH and GnRH for PACAP38; ref [46],[51],[52]; cited from earlier work
Source text: (§4) An intriguing aspect about the sbPAC1 genes is their divergent tissue distribution and this may be the basis of their specific physiological functions and persistence in the genome. Understanding the biological function of receptors is complex as it is not only the availability and concentration of receptors but also of ligands and accessory factors at a given site which will determine receptor preference/activity and ultimately biological function.

[1] = test system: Cos7 cell lines expressing the recombinant vector; experiment: Forskolin activation of transfected Cos7 cells (cAMP); assay type: cell-based; details: Forskolin 10 mM, 1 mM and 0.1 mM
Procedure: as §3, with “Spain). Homologous sea bream peptides are unavailable but their predicted amino acid sequences are 82%, 100%and 92% identical to human VIP, PACAP27 and PACAP38 respectively and important amino acids at N-terminus potential involved in receptor binding are totally conserved (unpublished data).” for “Spain).”
(§5) The quantification of cAMP produced was determined by radioimmunoassay using the TRK432 kit (GE Healthcare, UK) following the manufacturer's instructions. […] The concentration of cAMP produced (pmol/well) was determined in duplicate for each sample and calculations performed based on a linear regression curve constructed using standard concentrations of labelled (^3H) cAMP. […] Data was analyzed by comparing the potency profile of each sbPAC1 receptor in the presence of different concentrations of test peptides and by comparing the potency profile of both receptors in the presence of identical peptide concentrations. […]

[2] = test system: Hek293 cell lines expressing the recombinant vector; experiment: Forskolin activation of transfected Hek293 cells (cAMP); assay type: cell-based; details: Forskolin 10 mM, 1 mM and 0.1 mM
Procedure: as §3, with “Spain). Homologous sea bream peptides are unavailable but their predicted amino acid sequences are 82%, 100%and 92% identical to human VIP, PACAP27 and PACAP38 respectively and important amino acids at N-terminus potential involved in receptor binding are totally conserved (unpublished data).” for “Spain).”
as §5

[3] = test system: endogenous receptors in Hek293; experiment: Negative control: Hek293 cells transfected with pcDNA3 without insert; assay type: cell-based; details: maximum concentration of test peptide (10^-6 M)
Source text: The sbPAC1A and sbPAC1B were successfully expressed in Cos7 and Hek293 cell lines as confirmed by immunofluorescence and Western blot analysis. Cos7 cell extracts subject to Western blot contained a specific immunoreactive fusion protein of approximately 52 kDa in transfected cells, which corresponds to the estimated molecular weight in silico of the fusion proteins, (T7PAC1A is 52.75 kDa and T7PAC1B is 52.32 kDa). […] For this reason only the results obtained with transfected Cos7 cells are presented.
Ligand binding studies were performed two days after transfections, in three independent experiments. […]
as §5

PAC1 = details: human PAC1; ref [18],[19]; cited from earlier work
Source text: In vertebrates, activation of PAC1/VPAC receptors occurs via three intracellular transduction mechanisms. These involve either cyclic AMP (cAMP) production, IP turnover via PLC or/and calcium mobilization as a consequence of the activation of a G-protein complex. In mammals, five PAC1 isoforms, which result from the insertion of one or two, 28 (hip or hop1 variant) or ...

[4] = test system: gastric and pancreatic secretion; details: cod; ref [55],[56]; cited from earlier work
Source text: as §4

intestine = details: tilapia; ref [57]; cited from earlier work
Source text: as §4

[5] = transfected Cos7 cells, 30 minutes, 37°C, 1 mM IBMX

## secretin [SCT]
sbPAC1A; human SCT, Cos7 cells transformed with sbPAC1A, 30 minutes, 37°C, 1 mM IBMX, data not shown
  increase above the basal concentration of cAMP production: negligible increase
sbPAC1B; human SCT, Cos7 cells transformed with sbPAC1B, 30 minutes, 37°C, 1 mM IBMX, data not shown
  increase above the basal concentration of cAMP production: negligible increase

## Pituitary Adenylate Cyclase-Activating Polypeptide [PACAP38]
sbPAC1A; [5]
  LOGEC50 for cAMP production: -8.54 ± 0.18 M
sbPAC1B; [5]
  LOGEC50 for maximal cAMP production: -8.92 ± 0.24 M
Pituitary cells
  effect on fish GH secretion by pituitary cells: more potent stimulatory effect on fish GH secretion by pituitary cells when compared to GHRH and GnRH

## C=C[C@@]1(C)CC(=O)[C@]2(O)[C@@]3(C)[C@@H](O)CCC(C)(C)[C@@H]3[C@H](O)[C@H](OC(C)=O)[C@@]2(C)O1 [Forskolin]
[1]
  cAMP production with Forskolin: maximal cAMP production
[2]
  cAMP production with Forskolin: maximal cAMP production

## Pituitary Adenylate Cyclase-Activating Polypeptide [PACAP]
[3]
  responsiveness of Hek293 cells transfected with pcDNA3 without insert: responsive
PAC1
  binding preference of PAC1: preferentially binds PACAP

## Pituitary Adenylate Cyclase-Activating Polypeptide [PACAP27]
sbPAC1A; sbPAC1A vs sbPAC1B, P > 0.05
  stimulation of sbPAC1A compared to sbPAC1B (LOGEC50 values for maximal cAMP production): equally stimulated

## Vasoactive Intestinal Peptide [VIP]
sbPAC1A; LOGEC50 comparison of sbPAC1A vs sbPAC1B, P < 0.05
  potency for sbPAC1A compared to sbPAC1B: significantly more potent for sbPAC1A
sbPAC1A; [5]
  LOGEC50 for cAMP production: -7.23 ± 0.20 M
sbPAC1A; two way Anova, Holm-Sidak, transfected Cos7 cells, P < 0.05
  stimulation of cAMP production compared with PACAP peptides: significantly lower (P < 0.05) than for PACAP peptides
sbPAC1B; [5]
  LOGEC50 for maximal cAMP production: -6.57 ± 0.14 M
sbPAC1B; two way Anova, Holm-Sidak, transfected Cos7 cells, P < 0.001
  stimulation of cAMP compared with PACAP27 and PACAP38: significantly lower than PACAP27 and PACAP38 (P < 0.001)
[3]
  responsiveness of Hek293 cells transfected with pcDNA3 without insert: responsive
[4]
  effect on gastric and pancreatic secretion: stimulates gastric and pancreatic secretion
intestine
  effect on ion and water absorption by the intestine: involved in ion and water absorption by the intestine
Pituitary cells
  effect on fish GH secretion by pituitary cells: little or no effect on GH release
